Nine molecules from US20040110821A1, “GAL3 receptor antagonists for the treatment of affective disorders” (priority 2002, published 2004) can be followed below.

For the assay, the system named is Male Sprague-Dawley rats. In words: Rat Forced Swim Test (FST). It is filed as in vivo. Particulars: for overall profile in the Forced Swim Test (conclusion in words): rat, in vivo.
Where [1] appears, read: 3 mg/kg p.o., single administration 1 hr before 5 min test.
Setting [2] is: 1 mg/kg p.o., single administration 1 hr before 5 min test.
Setting [3] is: 10 mg/kg p.o., single administration 1 hr before 5 min test.
[4] abbreviates: 3 mg/kg p.o., single administration 1 hr before 5 min test, listed as EX22.
Where [5] appears, read: 10 mg/kg p.o., single administration 1 hr before 5 min test, listed as EX22.
Where [6] appears, read: 30 mg/kg p.o., single administration 1 hr before 5 min test.
[7] abbreviates: 30 mg/kg p.o., single administration 1 hr before 5 min test, listed as EX22.
Setting [8] is: 3 mg/kg p.o., single administration 24 hours before the test.
Where [9] appears, read: 5 mg/kg p.o., single administration 1 hr before 5 min test.
[10] abbreviates: 10 mg/kg p.o., single administration 1 hr before 5 min test, listed as Fluox.
Setting [11] is: 10 mg/kg p.o., single administration 1 hr before 5 min test, listed as fluoxetine.
[12] abbreviates: 10 mg/kg p.o., single administration 24 hours before the test.

Several values for one entry are separate records, joined by “and”; a condition that tells them apart may be missing. Equal entries are not always repeated. Marks after values point to notes of the source that are not given here.

As for `O=C1C(=Nc2cc(Cl)cc(Cl)c2)c2ccccc2N1c1ccccc1` [EX103], the Swimming under setting [1] stood at 13.2 ± 1.9 counts.

In the case of `CN(C)c1cc(Nc2ccc(Cl)c(Cl)c2)nc(N2CCN(Cc3ccccc3)CC2)n1` [EX151], under setting [2], the Climbing is 2.3 ± 0.6 counts, the Diving is recorded as 0.2 ± 0.2 counts, the Immobility came out at 41 ± 2.0 counts and the Swimming is 16.8 ± 1.4^d counts. Further, under setting [1], the Climbing is on record as 2.4 ± 0.5 counts, the Diving was 0.3 ± 0.2 counts, the Immobility is given as 38 ± 2.0^a counts and the Swimming is reported as 19.5 ± 1.5^e counts. Moreover, under setting [3], the Climbing is listed as 2.2 ± 0.5 counts, the Diving was found to be 0.3 ± 0.2 counts, the Immobility is 39 ± 1.8^b counts and the Swimming is listed as 18.9 ± 1.5^e counts.

Turning to `Cc1ccc(Nc2cc(N3CCCCC3)nc(N(C)CCc3ccccc3)n2)cc1` [Example 22], the “overall profile in the Forced Swim Test (conclusion in words)” value (from here on “overall profile in the Forced Swim Test”) is reported as “has antidepressant-like properties”. Under setting [1], the Climbing was found to be 2.0 ± 0.6 counts, the Diving entry was “not significantly altered”, the Immobility amounted to 50 ± 0.9 counts and the Swimming result was “did not significant alter swimming behavior”. Further, under setting [4], the Diving came to 0.4 ± 0.4 counts and the Swimming turned out to be 7.6 ± 0.5 counts. Also, under setting [3], the Climbing was determined as 2.9 ± 0.5 counts, the Diving entry is reported as “not significantly altered”, the Immobility result is reported as “significant decrease in immobility” and the Swimming entry is on record as “significant increase in swimming”. Under setting [5], the Diving is 0.4 ± 0.3 counts, the Immobility is 41 ± 1.3^c counts and the Swimming is given as 15.3 ± 0.8^g counts. Also, under setting [6], the Climbing entry is listed as “significant increase in climbing”, the Diving result is given as “not significantly altered”, the Immobility result is given as “significant decrease in immobility” and the Swimming result is recorded as “significantly greater increase in swimming behavior”. For the same molecule, under setting [7], the Climbing was 5.2 ± 1.0^a counts, the Diving amounted to 0.0 ± 0.0 counts, the Immobility is reported as 31 ± 2.8^b counts and the Swimming is listed as 23.2 ± 2.0^f counts.

For `O=C1C(=Nc2ccc(C(F)(F)F)cc2)c2ccccc2N1c1ccccc1` [Example 95, 1-PHENYL-3-[[4-(TRIFLUOROMETHYL)PHENYL]IMINO]-1,3-DIHYDRO-2H-INDOL-2-ONE], the “overall profile in the Forced Swim Test” value was “does not produce antidepressant-like actions in the forced swim test”. Further, under setting [1], the Climbing entry is reported as “did not significantly alter swimming, climbing, immobility or diving behavior”; the Diving entry was “did not significantly alter swimming, climbing, immobility or diving behavior”; the Immobility result is “did not significantly alter swimming, climbing, immobility or diving behavior”; the Swimming result is “did not significantly alter swimming, climbing, immobility or diving behavior”. Besides, under setting [3], the Immobility result is “significantly increased rat immobility” and the Swimming result is given as “significantly decreased swim behavior”. In addition, under setting [6], the Immobility result was “significantly increased rat immobility” and the Swimming entry is “significantly decreased swim behavior”.

Consider `O=C1C(=Nc2ccc(Br)cc2)c2ccccc2N1c1ccccc1` [Example 98, 3-[(4-BROMOPHENYL)IMINO]-1-PHENYL-1,3-DIHYDRO-2H-INDOL-2-ONE], for which the “overall profile in the Forced Swim Test” value was “produces a profile in the modified Lucki version of the FST resembling that of the clinically established antidepressant fluoxetine”. Moreover, under setting [1], the Climbing result was “no significant difference in the number of climbing counts”, the Diving entry was “not significantly altered”, the Immobility result is on record as “significantly decreased immobility” and the Swimming entry is listed as “significantly increased swimming”. Besides, under setting [3], the Climbing entry is reported as “no significant difference in the number of climbing counts”, the Diving result was “not significantly altered”, the Immobility result is “significantly decreased immobility” and the Swimming result was “significantly increased swimming”. Under setting [6], the Climbing result is “no significant difference in the number of climbing counts”, the Diving entry is “not significantly altered”, the Immobility result is “significantly decreased immobility” and the Swimming entry is recorded as “significantly increased swimming”.

On to `O=C1C(=Nc2cc(Cl)cc(Cl)c2)c2ccccc2N1c1ccccc1` [Example 103, 3-[(3,5-DICHLOROPHENYL)IMINO]-1-PHENYL-1,3-DIHYDRO-2H-INDOL-2-ONE], for which the “overall profile in the Forced Swim Test” value is “has antidepressant-like properties”. In addition, under setting [1], the Climbing result was “not significantly altered”, the Diving result is given as “not significantly altered”, the Immobility result was “did not significantly alter immobility” and the Swimming result is reported as “did not significantly alter swimming behavior”. Under setting [3], the Climbing result was “not significantly altered”, the Diving result is “not significantly altered”, the Immobility entry is listed as “did not significantly alter immobility” and the Swimming entry is “did not significantly alter swimming behavior”. Also, under setting [6], the Climbing entry was “not significantly altered”, the Diving result is “not significantly altered”, the Immobility entry is listed as “significant decrease in immobility” and the Swimming result is recorded as “significantly greater increase in swimming behavior”.

`CN(C)c1cc(Nc2ccc(Cl)c(Cl)c2)nc(N2CCN(Cc3ccccc3)CC2)n1` [Example 151]: the “overall profile in the Forced Swim Test” value is on record as “produces behavioral effects in the FST in rats that resemble those of antidepressants”. Under setting [2], the Climbing result is “not significantly altered”, the Diving entry was “not significantly altered”, the Immobility result is “did not significantly alter immobility” and the Swimming result was “significantly increased swimming”. Moreover, under setting [1], the Climbing result is listed as “not significantly altered”, the Diving result is listed as “not significantly altered”, the Immobility entry is recorded as “significantly decreased immobility” and the Swimming result was “significantly increased swimming”. Also, under setting [3], the Climbing entry was “not significantly altered”, the Diving result is listed as “not significantly altered”, the Immobility result is given as “significantly decreased immobility” and the Swimming result was “significantly increased swimming”.

`O=C1/C(=N\c2ccc(Cl)c(Cl)c2)c2ccccc2N1c1ccsc1` [Example 272, (3Z)-3-[(3,4-DICHLOROPHENYL)IMINO]-1-(3-THIENYL)-1,3-DIHYDRO-2H-INDOL-2-ONE]: the “overall profile in the Forced Swim Test” value is “has the profile of an antidepressant-like”. Further, under setting [8], the Climbing entry is “not significantly altered”, the Diving result is given as “not significantly altered”, the Immobility entry is “significantly decreased immobility” and the Swimming result was “significant increase in swimming behavior”.

As for `CNCCC(Oc1ccc(C(F)(F)F)cc1)c1ccccc1` (stereo not shown) [Fluoxetine, fluoxetine, reference compound], the Climbing entry reads like this: under setting [9], “not significantly altered”; (10 mg/kg i.p., single injection 1 h before 5 min test) “did not significantly alter climbing counts”; under setting [12], “not significantly altered”. In addition, the Diving entry was “not significantly altered” under setting [9]; “not significantly altered” (10 mg/kg p.o., single administration 1 hr before 5 min test, listed as fluoxet-ine); “not significantly altered” under setting [11]; “not significantly altered” under setting [12]. Further, the Immobility result reads like this: under setting [9], “did not significantly alter immobility”; under setting [10], 38 ± 2.3^a counts and 34 ± 2.3^b counts and 34 ± 3.0^a counts and 34 ± 3.3^b counts and 38 ± 1.3^b counts and 39 ± 1.7^d counts and 38 ± 2.2 counts; under setting [11], “significantly decreased immobility”; under setting [12], “significantly decreased immobility”. For the same molecule, the Swimming entry by setting is: under setting [9], “did not significantly alter swimming”; under setting [10], 19.8 ± 1.8^e counts and 21.8 ± 1.4^c counts and 22.8 ± 2.2^c counts and 21.3 ± 1.8^d,e counts and 21.6 ± 1.1^e counts and 19.2 ± 1.2^e counts and 20.0 ± 1.5^c counts; under setting [11], “significant increase in swimming behavior”; under setting [12], “significant increase in swimming behavior”.
